US20130210034A1, “COMPLEX PHOSPHOPROTEIN ACTIVATION PROFILES” (BECKMAN COULTER, INC., priority 2005, published 2013)
Values joined by “and” are separate entries in the source; they are usually repeats but may differ in a detail not shown here. Equal entries are not always repeated.

Experiments:
Assay type in all cases: cell-based, human
[1] = test system: pSTAT5; assay: Phosphoprotein kinetic profiles in bone marrow samples from healthy donors; settings: CD34^+, CD117^+ cells, healthy donor samples
Protocol: (§1) Phosphoprotein kinetic profiles were analyzed in bone marrow aspiration samples from nine healthy, adult donors (i.e., normal bone marrow or NBM) and from five AML patients. Samples from healthy donors included 5 males and 4 females, ranging in age from 26 to 49 years. Approximately 10 to 20 mL of bone marrow (BM) samples were collected from the posterior iliac crest of the volunteers using IRB approved protocols. The BM samples were filtered using a 40 μm Nylon cell strainer to remove marrow particles and the white blood cell concentration determined using a blood analyzer. […] The samples were immediately used for subsequent experimentation.
(§2) To assess the signal transduction response after growth factor simulation, 100 to 200 μL of processed samples including about 2×10^6 WBC/100 μL were added to tubes and incubated at 37° C. for 30 minutes. For inhibition experiments, cells were incubated with 100 μM U0126, 1 μg/mL rapamycin, or both for at least 20 minutes prior to cytokine addition and in all cases for 30 min prior to formaldehyde addition. […] After stimulation the cells were immediately fixed by the addition of formaldehyde to a final concentration of 4% v/v and incubated for 10 minutes at room temperature. Following fixation, red blood cells were lysed by the addition of TRITON-X/PBS solution (0.1% v/v final concentration Triton X-100) supplemented with a 1 x phosphatase inhibitor cocktail (PIC; final concentrations: 0.2 mM sodium orthovanadate, 2 mM sodium pyrophosphate decahydrate, 2 mM [3-glycerophosphate, and 10 mM sodium fluoride) and incubation at 37° C. for 20 minutes. The incubated solution was chilled by the addition of ice-cold Wash Buffer (final concentration 1×PBS and either 4% bovine serum albumin (BSA) or 4% heat-inactivated fetal bovine serum (FBS), supplemented with 1×PIC), and the samples were centrifuged at 300 g for 6 minutes at 4° C.). If the lysis was incomplete, samples were retreated with 0.1% Triton X-100 at 37° C. for 10 to 20 minutes. After removal of the supernatant, cells were washed twice in ice-cold Wash Buffer supplemented with 1×PIC and permeabilized by the addition of pre-chilled 80% methanol while simultaneously vortexing the tube and incubated on ice for 10 minutes. Methanol was removed by centrifugation, the pellet was washed with ice-cold 1×PBS, and non-specific binding was blocked by the addition of ice-cold Wash Buffer supplemented with 1×PIC and incubation at 4° C. for a minimum of 30 minutes.
(§3) To stain cells with fluorescent conjugated monoclonal antibodies, the incubated solution was centrifuged to remove the supernatant and the pellet was incubated for 60 minutes at 4° C. with an antibody staining solution including 0.25 μg to 0.50 μg of pS6-Pacific Blue, pERK-ALEXA 488, pSTAT5-ALEXA 647, CD34-PE, CD45-PerCP, and CD117-PC7. Samples were washed three times with ice-cold Wash Buffer supplemented with 1×PIC, resuspended in 0.5 mL ice-cold Wash Buffer supplemented with 1×PIC including 0.5 μg/mL DAPI, and analyzed by flow cytometryusing a BD LSR II Flow Cytometer, equipped with a High Throughput Sampler (HTS).
(§4) First, doublets, aggregates, and debris were excluded by gating on single cell events in the SSC-Area versus SSC-Height histogram. Then, in events passing through this gate, debris near the origin of the FSC-Area versus SSC-Area plot (gray in FIG. 4A) was excluded by drawing a gate around an area encompassing, primarily, lymphocytes, monocytes, and granulocytes (LMG, black in FIG. 4A). Next, in cells passing through the LMG gate, the blast region (circle in FIG. 4B) was identified in the CD45 versus SSC-Area histogram (FIG. 4B). From this blast population, CD34+, CD117+ cells were identified in the CD34 versus CD117 plot (boxed area in FIG. 4C).

[2] = test system: pERK; assay: as above; settings: for pERK Amp (peak amplitude of fold stimulation) / pERK RI (response interval): CD34^+, CD117^+ cells
Protocol: as §1, §2, §3, §4

[3] = test system: pS6; assay: as above; settings: for pS6 Amp (peak amplitude of fold stimulation) / pS6 RI (response interval): CD34^+, CD117^+ cells
Protocol: as §1, §2, §3, §4

[4] = test system: pSTAT5; assay: Phosphoprotein kinetic profiles in CD34+, CD117+ cells of AML bone marrow samples
Protocol: as §2, §3
(§5) First, doublets, aggregates, and debris were excluded by gating on single cell events in the SSC-Area versus SSC-Height histogram. Then, in events passing through this gate, debris near the origin of the FSC-Area versus SSC-Area plot (gray in FIG. 4A) was excluded by drawing a gate around an area encompassing, primarily, lymphocytes, monocytes, and granulocytes (LMG, black in FIG. 4A). Next, in cells passing through the LMG gate, the blast region (circle in FIG. 4B) was identified in the CD45 versus SSC-Area histogram (FIG. 4B). From this blast population, CD34+, CD117+ cells were identified in the CD34 versus CD117 plot (boxed area in FIG. 4C). Finally, these cells were further analyzed for cytokine-mediated increases in phosphorylation by constructing gates in the single parameter histograms (for positively and negatively stained events, i.e., for the phosphorylated and non-phosphorylated forms, respectively, of each protein) for pS6 (FIGS. 4D and 4G), pERK (FIGS. 4E and 4H), and pSTAT5 (FIGS. 4F and 4I). […] The dotted lines in each of these histograms represent unstimulated cells at t=0 min. FCS files were processed with WinList 6.0 3D (Verity Software House).

[5] = test system: pERK; assay: as above; settings: for pERK Amp (peak amplitude of fold stimulation) / pERK RI (response interval): CD34^+, CD117^+ cells; for Frequency, pERK: frequency of positive-stained cells; for Positives/Negatives, pERK: ratio of positive- to negative-stained cells; for pERK response, fold greater than in healthy donor samples: SCF: AML1 and AML2, FL: AML1
Protocol: as §2, §3, §5

[6] = test system: pS6; assay: as above; settings: for pS6 Amp (peak amplitude of fold stimulation) / pS6 RI (response interval): CD34^+, CD117^+ cells; for Frequency, pS6: frequency of positive-stained cells; for Positives/Negatives, pS6: ratio of positive- to negative-stained cells
Protocol: as §2, §3, §5

[7] = SCF-stimulated, healthy donor samples
[8] = SCF-stimulated, mean of healthy donors 6 to 9

Stem Cell Factor [SCF]
pSTAT5 Amp (peak amplitude of fold stimulation) [1]: 0.8 ± 0.2 | pSTAT5 RI (response interval) [1]: Variable | pERK Amp (peak amplitude of fold stimulation) ([2]; healthy donor samples): 120 and 120 ± 28 | pERK RI (response interval) ([2]; healthy donor samples): 8.7 min and 8.7 ± 0.3 min | frequency of positively stained cells at its maximum, pERK [2, 7]: 81% | Fold Stimulation, pERK [2, 8]: 53 | Frequency, pERK [2, 8]: 81 | MFI, pERK [2, 8]: 3700 | Positives/Negatives, pERK [2, 8]: 4.9 | pS6 Amp (peak amplitude of fold stimulation) ([3]; healthy donor samples): 18 ± 5.1 | pS6 RI (response interval) ([3]; healthy donor samples): 28 min and 28 ± 1.2 min | frequency of positively stained cells at its maximum, pS6 [3, 7]: 26% | Fold Stimulation, pS6 [3, 8]: 10 | Frequency, pS6 [3, 8]: 26 | MFI, pS6 [3, 8]: 1040 | Positives/Negatives, pS6 [3, 8]: 0.44 | pSTAT5 Amp (peak amplitude of fold stimulation) ([4]; AML1 sample (Example 6)): 32 | pSTAT5 Amp (peak amplitude of fold stimulation) ([4]; AML2 sample (Example 6)): 2 | pSTAT5 RI (response interval) ([4]; AML2 sample (Example 6)): 6 min | pERK Amp (peak amplitude of fold stimulation) ([5]; AML1 sample (Example 6)): 1600 | pERK RI (response interval) ([5]; AML1 sample (Example 6)): 30 min | pERK Amp (peak amplitude of fold stimulation) ([5]; AML2 sample (Example 6)): 1300 | pERK RI (response interval) ([5]; AML2 sample (Example 6)): 20 min | Fold Stimulation, AML to NBM ratio (pERK)AML1/(pERK)D6-9 ([5]; SCF-stimulated): 30 | Fold Stimulation, AML to NBM ratio (pERK)AML2/(pERK)D6-9 ([5]; SCF-stimulated): 25 | Frequency, AML to NBM ratio (pERK)AML1/(pERK)D6-9 ([5]; SCF-stimulated): 1.1 | Frequency, AML to NBM ratio (pERK)AML2/(pERK)D6-9 ([5]; SCF-stimulated): 1.1 | MFI, AML to NBM ratio (pERK)AML1/(pERK)D6-9 ([5]; SCF-stimulated): 0.41 | MFI, AML to NBM ratio (pERK)AML2/(pERK)D6-9 ([5]; SCF-stimulated): 0.35 | Positives/Negatives, AML to NBM ratio (pERK)AML1/(pERK)D6-9 ([5]; SCF-stimulated): 2.0 | Positives/Negatives, AML to NBM ratio (pERK)AML2/(pERK)D6-9 ([5]; SCF-stimulated): 1.5 | Fold Stimulation, pERK ([5]; SCF-stimulated, AML1): 1600 | MFI, pERK ([5]; SCF-stimulated, AML1): 1500 | Frequency, pERK ([5]; SCF-stimulated, AML1): 88 | Positives/Negatives, pERK ([5]; SCF-stimulated, AML1): 10 | Fold Stimulation, pERK ([5]; SCF-stimulated, AML2): 1300 | MFI, pERK ([5]; SCF-stimulated, AML2): 1300 | Frequency, pERK ([5]; SCF-stimulated, AML2): 90 | Positives/Negatives, pERK ([5]; SCF-stimulated, AML2): 7.4 | frequency of positively stained cells at its maximum, pERK ([5]; SCF-stimulated, AML samples): approximately 90% | pERK response, fold greater than in healthy donor samples [5]: approximately 10 fold | pS6 Amp (peak amplitude of fold stimulation) ([6]; AML1 sample (Example 6)): 1100 | pS6 RI (response interval) ([6]; AML1 sample (Example 6)): 30 min | pS6 Amp (peak amplitude of fold stimulation) ([6]; AML2 sample (Example 6)): 620 | pS6 RI (response interval) ([6]; AML2 sample (Example 6)): 30 min | Fold Stimulation, AML to NBM ratio (pS6)AML1/(pS6)D6-9 ([6]; SCF-stimulated): 110 | Fold Stimulation, AML to NBM ratio (pS6)AML2/(pS6)D6-9 ([6]; SCF-stimulated): 62 | Frequency, AML to NBM ratio (pS6)AML1/(pS6)D6-9 ([6]; SCF-stimulated): 3.7 | Frequency, AML to NBM ratio (pS6)AML2/(pS6)D6-9 ([6]; SCF-stimulated): 3.7 | MFI, AML to NBM ratio (pS6)AML1/(pS6)D6-9 ([6]; SCF-stimulated): 3.0 | MFI, AML to NBM ratio (pS6)AML2/(pS6)D6-9 ([6]; SCF-stimulated): 2.3 | Positives/Negatives, AML to NBM ratio (pS6)AML1/(pS6)D6-9 ([6]; SCF-stimulated): 80 | Positives/Negatives, AML to NBM ratio (pS6)AML2/(pS6)D6-9 ([6]; SCF-stimulated): 52 | Fold Stimulation, pS6 ([6]; SCF-stimulated, AML1): 1100 | MFI, pS6 ([6]; SCF-stimulated, AML1): 3100 | Frequency, pS6 ([6]; SCF-stimulated, AML1): 96 | Positives/Negatives, pS6 ([6]; SCF-stimulated, AML1): 35 | Fold Stimulation, pS6 ([6]; SCF-stimulated, AML2): 620 | MFI, pS6 ([6]; SCF-stimulated, AML2): 2400 | Frequency, pS6 ([6]; SCF-stimulated, AML2): 97 | Positives/Negatives, pS6 ([6]; SCF-stimulated, AML2): 23 | frequency of positively stained cells at its maximum, pS6 ([6]; SCF-stimulated, AML samples): ~97%

B1: FMS-Like Tyrosine Kinase 3 (FLT-3) ligand (protein, UniProt P49771 27-235, looked up)
Fms-related tyrosine kinase 3 …: TQDCSFQHSPISSDFAVKIRELSDYLLQDYPVTVASNLQDEELCGGLWRLVLAQRWMERLKTVAGSKMQGLLERVNTEIHFVTKCAFQPPPSCLRFVQTNISRLLQETSEQLVALKPWITRQNFSRCLELQCQPDSSTLPPPWSPRPLEATAPTAPQPPLLLLLLLPVGLLLLAAAWCLHWQRTRRRTPRPGEQVPPVPSPQDLLLVEH
pSTAT5 Amp (peak amplitude of fold stimulation) [1]: 0.8 ± 0.2 | pSTAT5 RI (response interval) [1]: Variable | pERK Amp (peak amplitude of fold stimulation) ([2]; healthy donor samples): 51 and 51 ± 11 | pERK RI (response interval) ([2]; healthy donor samples): 18 min and 18 ± 1.5 min | pS6 Amp (peak amplitude of fold stimulation) ([3]; healthy donor samples): 12 and 12 ± 1.4 | pS6 RI (response interval) ([3]; healthy donor samples): 37 min and 37 ± 6.0 min | pSTAT5 Amp (peak amplitude of fold stimulation) ([4]; AML1 sample (Example 6)): 2 | pSTAT5 RI (response interval) ([4]; AML1 sample (Example 6)): 2 min | pERK Amp (peak amplitude of fold stimulation) ([5]; AML1 sample (Example 6)): 460 | pERK RI (response interval) ([5]; AML1 sample (Example 6)): 30 min | pERK response, fold greater than in healthy donor samples [5]: approximately 10 fold | pS6 Amp (peak amplitude of fold stimulation) ([6]; AML1 sample (Example 6)): 140 | pS6 RI (response interval) ([6]; AML1 sample (Example 6)): 30 min
